Test results from paper PMC7073229, “Novel Quinoline Compounds Active in Cancer Cells through Coupled DNA Methyltransferase Inhibition and Degradation” (Cancers, 2020).
Counter-ions that a name gives are not always drawn.

How the values were obtained:
[1] = target: T1, C-terminal catalytic domain of human DNMT3A (hDNMT3A) (Homo sapiens, UniProt Q9Y6K1); assay: DNMT3A restriction-based fluorescence assay; format: biochemical; conditions: mean of at least two independent experiments; read-out: Enzyme Inhibition (EC50 ± SD) hDNMT3A
T1 construct: the C-terminal catalytic domain of human DNMT3A (hDNMT3A)
Description: DNMT3A enzyme inhibition was adapted from the restriction-based fluorescence assay protocol described in Ceccaldi et al.. Briefly, a biotin-labelled oligonucleotide at the 5’ end is hybridized to his complementary strand labelled at the 3’ end with 6-carboxyfluorescein. The DNA duplex containing only one single CpG site overlapping with a restriction site of a methylation sensitive restriction enzyme is transferred in the wells coated with avidin. The methylation reaction is performed by adding human C-terminal DNMT3A at the final concentration of 4 ng/µL in a total volume of 50 µL in the presence of the inhibitors at various concentrations and the co-substrate SAM at the final concentration of 20 µM. The plate was incubated for 1 h at 37 °C, washed, and added with the methylation sensitive restriction enzyme HpyCH4IV, incubated for 1 h further at 37 °C, washed and the fluorescence measured with a PerkinElmer Envision Multilabel Plate Reader. The data are expressed as percentage of inhibition vs. log concentration (M). Data are normalized referring to the “restriction control” (wells coated with labelled duplex not treated nor exposed to DNMT3A, but only cleaved by HpyCH4IV) as the maximum of inhibition (100%) and to the “DMSO control” (wells coated with labelled duplex but treated just with 0.1% DMSO exposed to DNMT3A and then to HpyCH4IV) as the minimum of inhibition (0%; total methylation).

[2] = test system: HL60 APL cells; assay: Antiproliferative activity, MTT; format: cell-based; conditions: Homo sapiens, HL-60, 48 h treatment, read-out: Antiproliferative Activity (IC50 ± SD) HL60
Description: (§1) U937 histiocytic lymphoma, HL60 acute promyelocytic leukemia, H1299 lung adenocarcinoma, MCF7 breast carcinoma, HT1080 fibrosarcoma, M14 melanoma, HeLa epithelial cervix carcinoma and peripheral blood B lymphocyte AHH1 human cell lines were obtained from the Deutsche Sammlung für Mikroorganismen and Zellkulturen (DSZM, Braunschweig, Germany) and were maintained in RPMI 1640 medium contained 10% fetal bovine serum (FBS), 2 mM L-glutamine, and antibiotics in a humidified atmosphere with 5% CO2 at 37 °C. HCT116 (ATCC, VA, USA) cells were propagated in Dulbecco’s modified Eagle medium (DMEM) (Euroclone, Milan, Italy) with 10% fetal bovine serum (FBS; Euroclone, Milan, Italy), 2 mM L-glutamine (Euroclone, Milan, Italy), and antibiotics (100 U/mL penicillin, 100 µg/mL streptomycin) (Euroclone, Milan, Italy). The experiments were performed with early (3–20) cell passages. Cell lines were treated with compounds at the indicated concentrations in the exponential growth phase.
(§2) Then, increasing concentrations of different compounds (ranging from 0.01 to 100 μM) were added, and cell proliferation was evaluated by a MTT assay after 48 h. Cells exposed to DMSO were used as control. The effect of compounds was evaluated using the CellTiter-Glo luminescent cell viability assay (Promega, Madison, WI, USA) according to the manufacturer’s instructions. For HCT116, 5 × 10^4 cells/well were plated in 24-well plate and treated, in duplicate, with compounds at several concentrations for 24 and 48 h of induction. After treatments, MTT solution was added for 3 h at 0.5 mg/mL, the obtained crystals were dissolved in DMSO (Sigma-Aldrich, Milan, Italy), and the absorbance was read at a wavelength of 570 nm with reader TECAN M-200. All the experiments were performed in triplicate and repeated at least three times.
(§3) IC50 values of compounds against cellular viability were determined by using nonlinear regression fitting curves with GraphPad Prism 8. The t-test used for statistical analyses was performed with GraphPad Prism 8. All the tests were one-tailed and a p-value < 0.05 was considered statistically significant.

[3] = test system: U937 AML cells; assay: Antiproliferative activity, MTT; format: cell-based; conditions: Homo sapiens, U-937, 48 h treatment, read-out: Antiproliferative Activity (IC50 ± SD) U937
Description: as §1, §2, §3

[4] = test system: luciferase reporter under methylated CMV promoter in KG-1 leukemia cells; assay: CMV-luc assay in KG-1 cells; format: cell-based; conditions: KG-1 CMV-luc, vs DMSO
Description: The assay was carried out as described by Rilova et al.. The KG-1 cell line was stably transfected with the luciferase firefly (Luc^+ from pGL3 by Promega, Madison, WI, USA) reporter gene under the control of a methylated CMV promoter (from pEGFP-N1 by Clontech) and selected for the maintenance of the methylation of CMV and luciferase expression silencing (KG-1 CMV-luc). The stably integrated KG-1 CMV-luc cells are cultivated in RPMI-1640 medium (Lonza, Strasbourg, France), supplemented with 10% FCS (Lonza, Strasbourg, France) and 0.5 mg/mL of geneticin (Sigma-Aldrich, Saint-Quentin Fallavier, France), under 5% CO2, at 37 °C and seeded at 20,000 cells per well in 96-well plates. After 5 or 24 h of incubation in the presence of compounds or the solvent DMSO, the induction of the promoter is measured by quantification of luciferase with the Brite-lite assay system (PerkinElmer, Villebon-sur-Yvette, France) according to the manufacturer’s protocol. The luminescence is measured on an EnVision Multilabel Plate Reader (PerkinElmer, Villebon-sur-Yvette, France), and the data are expressed as fold induction compared to DMSO control. The mean of 2–4 experiments and its standard error are reported.

[5] = test system: methylated UCHL1 promoter (pUCHL1) in HCT116 cells; assay: UCHL1 promoter demethylation assay (EGFP induction, FACS); format: cell-based, human; conditions: HCT116, 5 µM, five days
Description: The assay was performed as described in [29]. Briefly, human colon cancer HCT116 (ATCC, VA, USA) cells were grown in Dulbecco’s Modified Eagle Medium (DMEM; Euroclone, Milan, Italy) supplemented with 10% fetal bovine serum (FBS; Euroclone, Milan, Italy), 2 mM L-glutamine (Euroclone), and antibiotics (100 U/mL penicillin, 100 µg/mL streptomycin) (Euroclone). The pUMLIEP vector (composed by MetLuc-IRES-EGFP construct upon the control of the ubiquitin carboxyl-terminal hydrolase L1 (UCHL1)) was linearized and methylated by with ClaI and SssI-methylase enzymes (New England Biolabs, Milan, Italy). After, methylated pUMLIEP was transfected into HCT116 cells following the protocol described in [30]. […] On day 5, cells were observed under by a fluorescent microscope (Cytation 5 Cell Imaging Multi-Mode Reader (BioTeK Milan, Italy) and BD Accuri flow cytometers. Nuclei were counterstained with DAPI (10 µg/mL, Invitrogen, Tournai, Belgium).

[6] = test system: F21T G-quadruplex DNA; assay: FRET melting assay, G-quadruplex DNA; format: binding
Description: (§4) Experimental procedure for Fluorescence Resonance Energy Transfer (FRET) melting assay Oligonucleotides labeled at 5’ with FAM (6-carboxyfluorescein) as donor fluorophore and TAMRA (6 - carboxytetramethylrhodamine) at 3’ as the acceptor fluorophore were purchased from STAB VIDA (Portugal). Each oligonucleotide was initial ly diluted to 100 µM in water (Molecular Biology Reagent, Sigma). Stock solutions of 20 µM and subsequent dilutions were made with FRET buffer (60 mM KCl, potassium cacodylate, pH 7.4). Tagged oligonucleotides at 0.4 µM were annealed by heating at 90 -95 °C for 10 min, followed by slow cooling to room temperature. St ock solutions of compounds (1 mM) were prepared in 10% DMSO. Subsequent dilutions were performed using FRET buffer. Annealed DNA (50 µL) and test compound solutions (50 µL) were distributed across 96-well RT-PCR plates (PCR-96-FLT-C, Axygen, Inc). Fluorescence readings (performed in a 7300 RT -PCR equipment from Applied Biosystems) were taken at intervals of 0.5 °C in the range 31 –95 °C, with the temperature being maintained for 30 seconds prior to each reading. Experiments were performed in triplicate. Fina l analysis of the data was carried out with GraphPad Prism v.5.0 (GraphPad Software Inc., La Jolla, CA, USA).
(§5) The advanced curve-fitting function in GraphPad Prism (nonlinear regression fit) was used for calculation of ΔTm values. Only results with fitting r2 values > 0.75 (std error < 0.25) were considered.
(§6) Table S2. Synthetic oligonucleotides used in FRET experiments.

[7] = test system: KRAS21R G-quadruplex DNA; assay: FRET melting assay, G-quadruplex DNA; format: binding
Description: as §4, §5, §6

[8] = test system: U937 cells; assay: Sub-G1 peak, cell cycle flow cytometry; format: cell-based, human; conditions: U937, 1 µM, 24 and 48 h
Description: Cell cycle analysis was performed on 5 × 10^5 fixed cells resuspended in a RNase A (3 mg/mL) and propidium iodide (PI) solution (1 mg/mL). Samples were analyzed with a C6 Accuri BD (Becton Dickinson & Co., San Jose, CA, USA). The percentage of apoptosis was measured analyzing sub-G1 peaks. Apoptotic cell death was also evaluated by using annexin V–fluorescein isothiocyanate (FITC) apoptosis kit (BD Bioscience) and assayed according to the manufacturer’s instructions. Cells double-stained for both annexin V and PI were analyzed by flow cytometry. PI was used in conjunction with annexin V–FITC to distinguish cells in the earlier stages of apoptosis (annexin V-FITC positive, PI negative) from those in later stages of apoptosis or that were already dead (annexin V–FITC positive, PI positive). Percentage of cells positive for caspase-3 activation was evaluated by Active Caspase-3 Apoptosis Kit (BD biosciences, Milan, Italy) according to the manufacturer’s instructions.

[9] = test system: H1299 human non-small cell lung carcinoma; assay: Antiproliferative activity, MTT; format: cell-based; conditions: Homo sapiens, NCI-H1299, 48 h, 48 h treatment, read-out: Antiproliferative Activity (IC50 ± SD) H1299
Description: as §1, §2, §3

[10] = test system: HCT116 human colorectal carcinoma; assay: Antiproliferative activity, MTT; format: cell-based; conditions: HCT-116, 48 h treatment, read-out: Antiproliferative Activity (IC50 ± SD) HCT116
Description: as §1, §2, §3

[11] = test system: HT1080 human fibrosarcoma; assay: Antiproliferative activity, MTT; format: cell-based; conditions: HT-1080, 48 h treatment, read-out: Antiproliferative Activity (IC50 ± SD) HT1080
Description: as §1, §2, §3

[12] = test system: HeLa epithelial cervix carcinoma; assay: Antiproliferative activity, MTT; format: cell-based; conditions: Homo sapiens, 48 h treatment, read-out: Antiproliferative Activity (IC50 ± SD) HeLa
Description: as §1, §2, §3

[13] = test system: M14 human melanoma; assay: Antiproliferative activity, MTT; format: cell-based; conditions: 48 h treatment, read-out: Antiproliferative Activity (IC50 ± SD) M14
Description: as §1, §2, §3

T1 sequence (Q9Y6K1 634-912 limits assumed): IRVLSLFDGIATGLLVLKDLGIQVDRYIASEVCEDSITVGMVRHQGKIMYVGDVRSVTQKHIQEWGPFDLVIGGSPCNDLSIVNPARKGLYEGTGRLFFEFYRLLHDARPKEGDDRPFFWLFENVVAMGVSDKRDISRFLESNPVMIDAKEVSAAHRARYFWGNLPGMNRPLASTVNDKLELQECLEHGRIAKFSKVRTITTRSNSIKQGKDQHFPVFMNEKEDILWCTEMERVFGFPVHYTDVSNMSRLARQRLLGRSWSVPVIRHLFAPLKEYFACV

| SMILES | melting point | EC50 [1] | IC50 [2] | IC50 [3] | further results |
| --- | --- | --- | --- | --- | --- |
| Cc1cc(Nc2cccc(CNC(=O)c3cccc(Nc4ccnc5ccccc45)c3)c2)nc(N)n1 (as salt: hydrochloride) [Compound 1c] | 183 to 185 °C |  |  |  |  |
| Cc1cc(Nc2cccc(NCc3cccc(Nc4ccnc5ccccc45)c3)c2)nc(N)n1 [Compound 1f] | 98 to 100 °C | 12 ± 3 µM | 1.9 ± 0.1 µM | 4.4 ± 0.7 µM |  |
| Cc1cc(Nc2cccc(C(=O)Nc3cccc(Nc4ccnc5ccccc45)c3)c2)nc(N)n1 [Compound 1e] | 227 to 229 °C | 21 ± 4 µM | 9.9 ± 1.1 µM | 4.8 ± 0.6 µM |  |
| Nc1ncn([C@H]2C[C@H](O)[C@@H](CO)O2)c(=O)n1 [DAC, 5-aza-2′-deoxycytidine, reference compound] |  |  |  |  | Luciferase Expression (Fold ± SD) ([4]; 0.5 µM): 18.13 ± 5.52 fold; Luciferase Expression (Fold ± SD) ([4]; 1 µM): 19.80 ± 3.88 fold; Luciferase Expression (Fold ± SD) ([4]; 5 µM): 23.82 ± 5.44 fold; Luciferase Expression (Fold ± SD) ([4]; 10 µM): 20.96 ± 4.02 fold; pUCHL1 demethylation, EGFP-positive cells (FACS R1) [5]: 46.6% |
| C[n+]1ccc(-c2c3nc(c(-c4cc[n+](C)cc4)c4ccc([nH]4)c(-c4cc[n+](C)cc4)c4ccc([nH]4)c(-c4cc[n+](C)cc4)c4nc2C=C4)C=C3)cc1 [Py4P, reference compound] |  |  |  |  | F21T ∆Tm ([6]; positive control at 1 µM): 21.2 ºC; KRAS ∆Tm ([7]; positive control at 1 µM): 18.8 ºC |
| Cc1cc(Nc2cccc(NC(=O)Cc3cccc(Nc4ccnc5ccccc45)c3)c2)nc(N)n1 [Compound 1b] | 163 to 165 °C | 19 ± 2 µM | 40 ± 5 µM | 37 ± 5.9 µM |  |
| Cc1cc(Nc2cccc(NC(=O)c3cccc(CNc4ccnc5ccccc45)c3)c2)nc(N)n1 [Compound 1a] | 153 to 155 °C | 21 ± 3.1 µM | 18.1 ± 2.4 µM | 1.4 ± 0.2 µM |  |
| O=C(Nc1cccc(NC(=O)c2cccc(Nc3ccnc4ccccc34)c2)c1)OCc1ccccc1 [Compound 4b] |  | 13 ± 1.4 µM | 1.9 ± 0.3 µM | 3.2 ± 0.6 µM | effect on sub-G1 peaks vs untreated cells [8]: remarkable increase; IC50 [9]: 40 ± 4.8 µM; IC50 [10]: 20.5 ± 2.8 µM; IC50 [11]: 13.1 ± 1.5 µM; IC50 [12]: 65 ± 7.3 µM; IC50 [13]: 15.3 ± 2 µM; F21T ∆Tm ([6]; 5 µM): 3.8 ºC; F21T ∆Tm ([6]; 10 µM): 1.5 ºC; KRAS ∆Tm ([7]; 5 µM): 2.8 ºC; KRAS ∆Tm ([7]; 10 µM): 2.5 ºC |
| Cc1cc(NCc2cccc(NC(=O)c3cccc(Nc4ccnc5ccccc45)c3)c2)nc(N)n1 [Compound 1d] | 260 to 262 °C | 51 ± 10 µM | 67 ± 7.4 µM | 67 ± 8.8 µM |  |

The next lines start with results.

| melting point | EC50 [1] | IC50 [2] | IC50 [3] | SMILES | further results |
| --- | --- | --- | --- | --- | --- |
| 218 to 220 °C | 41 ± 10 µM | 83 ± 10.2 µM | 52.4 ± 7.6 µM | Cc1cc(Nc2ccc(NC(=O)c3cccc(Nc4cc(C)nc(N)n4)c3)cc2)nc(N)n1 [Compound 3a] |  |
| 105 to 107 °C | > 100 µM | 225 ± 28.5 µM | 123 ± 15 µM | Cc1cc(Nc2cccc(NC(=O)c3cccc(Nc4cc(C)nc(N)n4)c3)c2)nc(N)n1 [Compound 3b] |  |
| 292 to 294 °C | 13 ± 0.9 µM | 125 ± 16.2 µM | 66 ± 9.2 µM | Cc1cc(Nc2ccc(C(=O)Nc3cccc(Nc4cc(C)nc(N)n4)c3)cc2)nc(N)n1 [Compound 3c] |  |
